Paper PMC9455983 (International Journal of Molecular Sciences, 2022)
pKi: −log10 of the molar value. “Also recorded” adds a separate entry of the source. Like-named read-outs stand apart in the source and are kept apart here.

Assays:
C57BL/6J mice [1] = test: Opioid receptor involvement in antinociception (antagonist pretreatment, tail-withdrawal assay); type: in vivo, mouse
Method: Pretreatment of mice with the opioid antagonist naloxone (10 mg/kg, s.c., −15 min) was used to assess receptor contribution to the observed antinociception induced by maximal tested doses of each 1968-series compound tested.
The opioid receptor involvement in the agonist activity of the heterocyclic peptidomimetics was determined by pretreating mice with a single dose of β-funaltrexamine (β-FNA, 10 mg/kg, i.p.) or nor-BNI (10 mg/kg, i.p.) 24 h in advance of administration of a dose of 1968-series compound.

C57BL/6J mice [2] = test: Respiration rate in CLAMS/Oxymax system; type: in vivo, mouse; details: i.c.v.
Method: Respiration rates (in breaths per minute) and animal locomotive activity (as ambulations) were assessed using the Oxymax/CLAMS system (Columbus Instruments, Columbus, OH), as described previously. Mice were habituated to their individual sealed housing chambers for 60 min before testing. Mice were administered 1968-22 (0.3–100 nmol, i.c.v.), morphine (100 nmol, i.c.v.), or vehicle, as indicated, and five min later confined to the CLAMS testing chambers. Pressure monitoring within the sealed chambers measured frequency of respiration. Infrared beams located in the floor measured locomotion as number of beam breaks. Respiration and locomotive data were averaged over 20 min periods for 120 min post-injection of the test compound. Data are presented as % vehicle response ± SEM, ambulation or breaths per minute.

[3] = biological target: T1, delta-opioid receptor (DOR) (Rattus norvegicus, UniProt P33533); test: DOR radioligand competition binding assay ([3H]-DPDPE); details: Delta screening results
T1 construct: Rat cortices were homogenized using 50 mM Tris, pH 7.4, 10 mM MgCl2-6H2O, 200 µM PMSF; from tissue; host or cells: rat cortex membranes
Procedure, shortened: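 Competition binding on rat cortical homogenate in 50 mM Tris pH 7.4, 10 mM MgCl2, 200 µM PMSF with 2 nM [3H]-DPDPE, 2.5 h at 25 °C. Unlabeled DPDPE defined nonspecific binding; filtration onto BSA-soaked GF/B filters, scintillation counting. Mean ± SD of two experiments in duplicate.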

C57BL/6J mice [4] = test: Conditioned place preference / aversion; type: in vivo, mouse; details: 0.1, 1 or 10 nmol, i.c.v.; two days of place conditioning
C57BL/6J mice [5] = test: Opioid antagonist activity of 1968-22 against opioid agonists (tail-withdrawal assay)
[6] = biological target: T2, kappa-opioid receptor (KOR) (Cavia porcellus, UniProt P41144); test: KOR radioligand competition binding assay ([3H]U69,593); set-up: species or system guinea pig; details: Kappa screening results
T2 construct: Guinea pig cortices and cerebella were homogenized using 50 mM Tris, pH 7.4; from tissue; host or cells: guinea pig cortex and cerebellum membranes
Procedure, shortened: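 Guinea pig cortex and cerebellum homogenates in 50 mM Tris pH 7.4 with 10 mM MgCl2, 2 nM [3H]U69,593, 2 h at 25 °C. Unlabeled U50,488 gave the standard curve and nonspecific binding. Filtration on BSA-soaked GF/B filters, scintillation counting; two replicates, repeated twice, mean ± SD.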

mu-opioid receptor (MOR) = biological target: T3, mu-opioid receptor (MOR) (Rattus norvegicus, UniProt P33535); test: MOR radioligand competition binding assay ([3H]-DAMGO); details: Mu screening results
T3 construct: Rat cortices were homogenized using 50 mM Tris, pH 7.4, and centrifuged at 16,500 rpm for 10 min; from tissue; host or cells: rat cortex membranes
Procedure, shortened: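 Rat cortical membranes in 50 mM Tris pH 7.4 with 2 mg/mL bovine serum were incubated with 2 nM [3H]-DAMGO and test compound. Bound radioligand was separated by filtration on BSA-soaked GF/B filters and counted by scintillation. Values are mean ± SD of two experiments, each in duplicate.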

C57BL/6J mice [7] = test: Acute antinociceptive tolerance determination; details: i.c.v.
[8] = mean of two experiments, read-out: Ki
[9] = experiment 1, unit inferred, read-out: Ki (Exp 1)
[10] = experiment 2, unit inferred, read-out: Ki (Exp 2)

Cc1cc(O)cc(C)c1C[C@H]1CN([C@@H](Cc2c(C)cc(O)cc2C)CN2C(=N)NC[C@@H]2C)C(=N)N1 [1968-22]
effect of naloxone pretreatment on antinociception (C57BL/6J mice [1]; naloxone 10 mg/kg, s.c., −15 min, maximal tested i.c.v. dose of compound): most susceptible to antagonism by naloxone; also recorded: blocked fully
effect of naltrindole (DOR antagonist) pretreatment on antinociception (C57BL/6J mice [1]; naltrindole 20 mg/kg, i.p., −20 min, 1968-16 30 nmol or 1968-22 0.3 nmol, i.c.v.): significantly antagonized
effect of nor-BNI (KOR antagonist) pretreatment on antinociception (C57BL/6J mice [1]; nor-BNI 10 mg/kg, i.p., −24 h, 1968-16 30 nmol or 1968-22 0.3 nmol, i.c.v.): significantly antagonized
effect of β-FNA (MOR antagonist) pretreatment on antinociception (C57BL/6J mice [1]; β-FNA 10 mg/kg, i.p., −24 h, 1968-16 30 nmol or 1968-22 0.3 nmol, i.c.v.): significantly antagonized
effect on respiration rate vs vehicle (C57BL/6J mice [2]; 100 nmol): increases in respiration rates
effect on respiration rate vs vehicle (C57BL/6J mice [2]; 0.3, 1 or 10 nmol): did not have any significant effect
pKi ([3]; first Ki column, unit not printed (apparently M), read-out: Ki (first column)): 6.59
pKi ([3]; mean of both Ki, unit inferred, read-out: MEAN (Ki)): 6.58
pKi [3, 8]: 6.58
pKi ([3]; second Ki column, unit not printed (apparently M), read-out: Ki (second column)): 6.57
place conditioning result (C57BL/6J mice [4]): no significant preference or aversion
antagonism of SNC-80-induced antinociception (C57BL/6J mice [5]; 2.5 h pretreatment, 0.3 nmol i.c.v., SNC-80 100 nmol, i.c.v.): significantly antagonized
antagonism of morphine-induced antinociception (C57BL/6J mice [5]; 2.5 h pretreatment, 0.3 nmol i.c.v., morphine 10 mg/kg, i.p.): did not have an effect
pretreatment dose giving maximal antagonism of SNC-80 (C57BL/6J mice [5]; i.c.v. pretreatment, SNC-80 100 nmol, i.c.v.): 3 nmol
pKi [6, 9]: 6.71
pKi [6, 10]: 6.62
pKi [6, 8]: 6.66
pKi (mu-opioid receptor (MOR); [9]): 8.11
pKi (mu-opioid receptor (MOR); [10]): 8.14
pKi (mu-opioid receptor (MOR); mean of Exp 1 and Exp 2, unit inferred, read-out: MEAN (Ki)): 8.13
pKi (mu-opioid receptor (MOR); [8]): 8.15
acute antinociceptive tolerance (in words) (C57BL/6J mice [7]): significant tolerance
ED50 (95% C.I.) of second dose at 8 h (C57BL/6J mice [7]; after ED50 pretreatment at 0 h): 0.18 (0.09–0.32) nmol
